The conditions of data set [1]: patients, by body surface area; cited from earlier work.
In data set [2] the test system is microvascular endothelium (skin, right anterior thigh) of a peripheral artery disease patient. Nature of the data set: Skin colorimetry (a, b, L) before and after application of “μ” in a peripheral artery disease patient on cilostazol. It counts as in vivo, human. As to conditions: 50 mg twice a day; for a dry: baseline (dry). An excerpt:
As stated above, one available quantitative color system is the L*a*b* color space or Hunter L/a/b color space, which can be visualized as a rectangular 3D coordinate system. L indicates lightness, a is the red/green coordinate, and b is the yellow/blue coordinate. L can have a value from 0 (black) to 100 (perfect reflection). The a and b axes have no numerical limits. Coordinate a is positive when red, and negative when green. Positive b is yellow, and negative b is blue. Colors can be described numerically using numerical values for L, a, and b. Differences between two colors can be quantified for each of the individual L/a/b values (ΔL, Δa, Δb). Overall differences between two colors can be derived numerically based on the three Δ values.
μ=drug applied before colorimeter and/or spectrophotometer measurements.
L1, a1, b1=Initial measurement.
L2, a2, b2=Measurement with μ applied. L2−L1=ΔLμ(L2 minus L1)=change in lightness and darkness(+=lighter,−=darker) a2−a1=Δaμ(a2 minus a1)=change in red and green(+=redder,−=greener) b2−b1=Δbμ(b2 minus b1)=change in yellow and blue(+=yellower,−=bluer)
When the arteries in the lower extremities become blocked and stenosed with various disease manifestations such as diabetes, hypercholesterolemia there is an increased amount of claudication that occurs with the lower extremities with minimal exertion. Using the current methodology described herein the patient can ascertain if the effects of the various antiplatelet and statin medication's i.e. Lipitor, Crestor are affective in improving the blood flow to the lower extremities. By taking baseline measurements in the lower extremities in particular locations in the legs such as the anterior tibial surface of a right or left leg, medication can be then administered to the patient. After the corresponding 5 half-lives or more have past of drug “δ” the procedure above can be implemented and test run to determine the a, b, L after drug “μ” has been applied. This information can then be used by calculating the measurements with the equation as described above the change in the colorimetric and spectrophotometric variables that can be derived. This will then allow for the ability of the patient in the healthcare provider to know which drug provides the maximum increase in cardio vascular flow to the area based on the information of the homeostasis of the microvascular endothelial system. The more a percentage change of equal to or greater than 10%, the better the flow that would be understood to be an improvement of the peripheral circulation of that area. It will also allow for the proper titration of medication of that particular area. If it seems to improve the flow then, the patient and the healthcare provider may decide to increase the dosage of the medication to have a better benefit. This will allow for an objective determination of how well the patient is responding to the medication while minimizing the side effects of the drugs.
With reference to the table below and to FIG. 19, the table and the graph show a patient with known peripheral artery disease diagnosed by angiogram in the right distal common femoral artery who is having their right anterior thigh continuously evaluated at the same location for the a, b, L calculations after they were initially started on 50 mg of cilostazol twice a day from December 2016 until August 2017. The values of the of a, b, L, are calculated after “μ” was applied which is shown in color red.

Data set [3] relates to coronary arteries. As to conditions: cited from earlier work.
The subject of data set [4] is skin capillaries. Description: Topical wet run solution on skin: capillary dilation / red shift. It counts as in vivo, human. Particulars: applied to skin surface. An excerpt: The inventor's work has identified previously unknown differences in the reactions of healthy and unhealthy individuals to acetylcholine and other vasodilative substances when applied to the skin. […] Additional efficacious wet run solutions include bradykinin, adenosine, vasopressin, nitroglycerin, sildenafil, serotonin, and thrombin.
“Wet runs” can be performed according to the same general protocol described above for dry runs, which are incorporated herein but will not be fully repeated for brevity. The difference is that for wet runs the skin area being measured with the color detector is wetted with a chemical solution (a.k.a. “Wet run solution”). For example, a solution of one or more chemicals (e.g. acetylcholine and/or thrombin) in water, alcohol, petroleum jelly, or saline. The solution can be applied by wiping or covering the area with a wet gauze pad. The solution may be applied once at the beginning of the procedure before the color detector is positioned on the skin, or applied more than once throughout the procedure. Suspensions of effective chemicals (as opposed to solutions), viscous spreadable chemical applications, lipid-carrier compounds, and potentially non-wet applications of effective chemicals are also contemplated.
Wet runs can also be used as a partial substitute for exercise in a clinical setting, such as for patients who are not physically able to perform stress test exercises. The chemical alone provokes the same general types of differential responses as stress test exercise. For example, in a healthy at-rest individual, acetylcholine alone causes skin capillary dilation, which increases blood perfusion and (because blood is red) causes the skin to become more red. In an unhealthy individual, the acetylcholine alone will cause only low, negligible, or even negative red shift. Thus, the differential reactions to application of acetylcholine (for example) can be used to assess vascular health or the effectiveness of medication even without a stress test.

As to `COc1cccc2c1C(=O)c1c(O)c3c(c(O)c1C2=O)C[C@@](O)(C(=O)CO)C[C@@H]3O[C@H]1C[C@H](N)[C@H](O)[C@H](C)O1` [Adriamycin], the “cumulative dose associated with an increased risk of cardiomyopathy” value in data set [1] is listed as “above 550 mg/m2”.
For the molecule `O=C1CCc2cc(OCCCCc3nnnn3C3CCCCC3)ccc2N1` [Cilostazol, cilostazol], in data set [2] (9 months monitoring), the “effect on blood flow to the microvascular endothelium (a shift after μ)” value is “improved blood flow”. Also, the L in data set [2] (April 2017) is 70.42; in data set [2] (August 2017), 65.59; in data set [2] (December 2016) it was 65.09; in data set [2] (February 2017) it was 71.68; in data set [2] (January 2017), 58.14; in data set [2] (July 2017), 71.63. Besides, the L was determined as 66.06 in data set [2] (June 2017), 70.24 in data set [2] (March 2017) and 69.91 in data set [2] (May 2017). For the same molecule, the b worked out at 16.14 in data set [2] (April 2017); 16.8 in data set [2] (August 2017); 15.65 in data set [2] (December 2016); 14.67 in data set [2] (February 2017); 10.51 in data set [2] (January 2017); 14.62 in data set [2] (July 2017). For the same molecule, the b in data set [2] (June 2017) stood at 17.75; in data set [2] (March 2017), 15.42; in data set [2] (May 2017) it was 15.64. The a dry in data set [2] (April 2017) came to 5.14; in data set [2] (August 2017), 5.31; in data set [2] (December 2016), 4.58; in data set [2] (February 2017), 4.70; in data set [2] (January 2017), 4.62; in data set [2] (July 2017) it was 5.15. In addition, the a dry came out at 5.35 in data set [2] (June 2017), 5.12 in data set [2] (March 2017) and 5.02 in data set [2] (May 2017). For the same molecule, the “a wet after “μ”” value was 7.33 in data set [2] (April 2017); 10.32 in data set [2] (August 2017); 5.35 in data set [2] (December 2016); 7.33 in data set [2] (February 2017); 6.33 in data set [2] (January 2017); 8.95 in data set [2] (July 2017). Also, the results for the “a wet after “μ”” value in data set [2] (June 2017), in data set [2] (March 2017) and in data set [2] (May 2017) were 9.40, 7.62 and 8.06, respectively.
On to `CC(=O)OCC[N+](C)(C)C` [acetylcholine], for which, in data set [3] (eight arteries with advanced stenosis), the temporary occlusion entry was “temporary occlusion in five”.
On to `Nc1ncnc2c1ncn2[C@@H]1O[C@H](CO)[C@@H](O)[C@H]1O` [adenosine], for which, in data set [4], the “efficacy as wet run solution” value is listed as “efficacious”.
As for `O=[N+]([O-])OCC(CO[N+](=O)[O-])O[N+](=O)[O-]` [nitroglycerin], the “efficacy as wet run solution” value in data set [4] is “efficacious”. Moreover, the vessel response result in data set [3] (all vessels (normal and diseased)) is reported as “All vessels dilated”.
For `NCCc1c[nH]c2ccc(O)cc12` [serotonin], in data set [4], the “efficacy as wet run solution” value was “efficacious”.
The same measure, in the same setting: the entry for `CCCc1nn(C)c2c(=O)[nH]c(-c3cc(S(=O)(=O)N4CCN(C)CC4)ccc3OCC)nc12` [sildenafil] is “efficacious”; for `NC(=O)CC[C@@H]1NC(=O)[C@H](Cc2ccccc2)NC(=O)[C@H](Cc2ccc(O)cc2)NC(=O)[C@@H](N)CSSC[C@@H](C(=O)N2CCC[C@H]2C(=O)N[C@@H](CCCN=C(N)N)C(=O)NCC(N)=O)NC(=O)[C@H](CC(N)=O)NC1=O` [vasopressin] it is “efficacious”.
Same read-out and setting: the entry for thrombin is “efficacious”.

These data come from patent US10154813B1, “Method and apparatus for patient skin color monitoring and drug efficacy measurement” (priority 2017, dated 2018).
